Where two headings read alike, the source gives them in different places.
Tests used:
human CB2 receptor = human CB2 receptor (Homo sapiens (Human), UniProt P34972); assay: Receptor binding assay, CB2 ([3H]CP 55,940 displacement); details: for CB1/CB2: ratio of Ki CB-1 to Ki CB-2; for Ki: as repeated in the anti-inflammatory table, read-out: CB-2 Ki
Protocol: (§1) The assays were carried out in 96 well plates obtained from Millipore, Inc. fitted with glass fiber filters (hydrophilic, GFC filters) having a pore size of 1.2μ. The filters were soaked with 0.05% polyethyleneimine solution and washed 5× with deionized water prior to carrying out the assays. The filtrations were carried out on a 96 well vacuum manifold (Millipore Inc.), the filters punched out with a pipette tip directly into scintillation vials at the end of the experiment and vials filled with 5 ml scintillation cocktail Ecolite (+) (Fisher Scientific). Counting was carried out on a Beckmann Scintillation Counter model LS6500. Drug solutions were prepared in DMSO and the radioligand was dissolved in ethanol.
(§2) 50 mM TRIS-HCl, 5 mM MgCl2, 2.5 mM EDTA, 0.5 mg/ml fatty acid free bovine serum albumin, pH 7.4.
(§3) The membranes were filtered and the filters washed 7× with 0.2 ml ice-cold incubation buffer and allowed to air dry under vacuum.
(§4) Final data are presented as Ki±S.E.M. of n≧3 experiments.

H69AR lung cancer cells = assay: Anti-cancer activity, WST-8 cell viability, H69AR; assay type: cell-based; details: Homo sapiens, 18 h, read-out: H69AR lung EC50 (μM)
Protocol: (§5) A representative group of compounds (shown below) was tested for anti-cancer activity against human lung (DMS-135 and H69AR), prostate (DU-145), colorectal (HCT-15), and pancreatic (BxPC-3) cancer cell lines using the methodology described below, providing results shown in Table 3.
(§6) Human cancer cells DU-145, DMS-135, H69AR, HCT-15, and BxPC-3 (American Type Culture Collection, ATCC) were cultured in supplemented media according to the recommendations of the supplier. Cells lines were plated in 96-well flat-bottom plates at 70% confluency in a 100 μl total volume of supplemented media as indicated, and incubated overnight at 37° C. to allow for adherence. The cultures were inoculated with escalating amounts of drug and cell death was analyzed at 18 hours, using the BioTek Synergy 2 Multidetection Microplate Reader. The percentage of viable cells present in the culture at each time point was calculated by comparing the absorbance value at 450 nm from the WST-8 assay (Pojindo Molecular Technologies) for each condition with untreated control cells.

[1] = system: DU-145 prostate cancer cells; assay: Anti-cancer activity, WST-8 cell viability, DU-145; assay type: cell-based; details: Homo sapiens
Protocol: as §5, §6

[2] = system: BxPC-3 pancreatic cancer cells; assay: Anti-cancer activity, WST-8 cell viability, BxPC-3; assay type: cell-based; details: Homo sapiens
Protocol: as §5, §6

IL-6 = IL-6 level in supernatant of TNF-α treated A549 cells (multiplex bead immunoassay); assay type: cell-based, human; details: A549, 10 ng/mL TNF-α, 18 hours
Protocol: (§7) Human lung adenocarcinoma cell line A549 (alveolar type II epithelial-like) cells (ATCC, Manassas, Va.) were maintained in growth media consisting of DMEM supplemented with 10% heat-inactivated fetal calf serum, 2 mM L-glutamine, 100 U/ml penicillin, and 100 μg/ml streptomycin.
(§8) One day prior to treatment, A549 cells were seeded in 24 well culture plates at 6×10^4 cells/well in 1 mL of DMEM containing 1% FCS. On the day of treatment, media was aspirated. Following PBS wash, 1 mL of media containing 1% FCS, 10 ng/mL TNF-α, and varying concentrations of test compounds was added. Samples were collected at 18 hours and immediately transferred to −80° C. until the day of analysis.
(§9) Levels of IL-6 and CXCL-8 were measured in cell culture supernatant using the Multiplex Bead Immunoassay Kit (Biosource, Camarillo, Calif.) paired with the Luminex® 200™ System. Standard solutions were prepared by serial dilution in a 50% media, 50% buffer solution so that they were in the same matrix as the samples. Standards and samples were mixed with a solution containing beads coated with capture antibodies specific for IL-6 and CXCL-8. Each capture antibody is bound to a specific bead population with a known internal fluorescence. The Luminex system can differentiate between internal fluorescence of beads allowing detection of multiple analytes in the same well. Following overnight incubation to allow complexation of protein with capture antibodies, wells were washed and beads resuspended in assay buffer. Biotinylated reporter antibodies specific for IL-6 and CXCL-8 were added and incubated for 1.5 hours. Unbound antibodies were removed by washing, and Streptavidin-Phycoerythrin (PE) was added and incubated 30 minutes. Streptavidin binds to biotin on the reporter antibodies. Unbound reagents were removed and samples were analyzed by the Luminex system. This system utilizes a flow cytometry system and lasers capable of exciting the internal dyes of the beads and PE. The machine separates signals from beads with different internal fluorescence and measures fluorescence intensity from PE bound to these beads through protein-antibody interactions. This fluorescence intensity is reported as the median of 100 beads per cytokine in each well. Concentrations were interpolated by fitting fluorescence intensity from unknowns to the standard curves.
(§10) Cells treated with the pro-inflammatory cytokine TNF-α increase production of IL-6 and CXCL-8 when compared to cells not treated with TNF-α. Cells treated with anti-inflammatory compounds block the inflammatory effect of TNF-α and produce IL-6 and CXCL-8 levels similar to cells that are not treated with TNF-α.

[3] = system: DMS-135 lung cancer cells; assay: Anti-cancer activity, WST-8 cell viability, DMS-135; assay type: cell-based; details: Homo sapiens
Protocol: as §5, §6

human CB1 receptor = human CB1 receptor (Homo sapiens (Human), UniProt P21554); assay: Receptor binding assay, CB1 ([3H]CP 55,940 displacement); details: as repeated in the anti-inflammatory table; read-out: CB-1 Ki
Protocol: as §1, §2, §3, §4

[4] = system: HCT-15 colorectal cancer cells; assay: Anti-cancer activity, WST-8 cell viability, HCT-15; assay type: cell-based; details: Homo sapiens
Protocol: as §5, §6

NF-κB = NF-κB SEAP reporter assay in TNF-α treated A549 cells; assay type: cell-based; details: Homo sapiens, read-out: NF-κB Reduction; for inhibition at 0.01 µM: 10 nM compound
Protocol: as §7
The plasmid pNF-κB-SEAP-NPT was kindly provided by Dr. Y. S. Kim of the Seoul National University. This plasmid contains a secreted alkaline phosphatase (SEAP) reporter gene coupled with the κB response element. Upon activation, NF-κB translocates to the nucleus and binds to the κB response element causing transcriptional activation. This activation drives production of the SEAP reporter, which is secreted into the cell culture supernatant where it can be measured. The neomycin phosphotransferase (NPT) region of the plasmid provides resistance to the antibiotic G-418.
A549 cells were stably transfected with pNF-κB-SEAP-NPT using GeneJammer Transfection Reagent (Stratagene, La Jolla, Calif.) per manufacturer's protocol. G-418 (500 μg/ml) was added 24 hrs after transfection to select for stable transfection of NF-κB. Resistant colonies were selected and maintained in growth media supplemented with 500 μg/ml G-418.
Previous experiments have shown A549 cells respond to the pro-inflammatory cytokine TNF-α by activation of the pro-inflammatory transcription factor, NF-κB. This effect is dose dependent with the maximum effect seen at 10 ng/mL TNF-α. Compounds with anti-inflammatory activity can be used to inhibit this activation of NF-κB.
One day prior to treatment, transfected cells were seeded in 24 well culture plates at 6×10^4 cells/well in 1 mL of DMEM containing 1% FCS. On the day of treatment, media was aspirated. Following PBS wash, 1 mL of media containing 1% FCS, 10 ng/mL TNF-α, and varying concentrations of test compounds was added. Cell culture supernatant was collected at 18 hours. SEAP production was measured in 50 μL of supernatant using the Great EscAPe™ chemiluminescence kit (Clontech, Mountain View, Calif.). Briefly, samples were incubated at 65° C. for 30 minutes to inactivate endogenous alkaline phosphate. Following a 5-minute equilibration with assay buffer, chemiluminescent substrate and enhancer was added. Chemiluminescence was measured after 10 minutes. Higher levels of chemiluminescence result from increased SEAP production and correspond to NF-κB activity. Compounds capable of inhibiting NF-κB activation due to TNF-α are determined by a reduction in chemiluminescence values when cells are treated with TNF-α and test compound versus cells treated with TNF-α alone.

CXCL-8 = CXCL-8 level in supernatant of TNF-α treated A549 cells (multiplex bead immunoassay); assay type: cell-based, human; details: A549, 10 ng/mL TNF-α, 18 hours
Protocol: as §7, §8, §9, §10

[5] = DU-145, 18 h, read-out: DU-145 prostate EC50 (μM)
[6] = 18 h, read-out: DMS-135 lung EC50 (μM)
[7] = HCT-15, 18 h, read-out: HCT-15 colorectal EC50 (μM)

Sequence of human CB1 receptor (P21554 whole entry): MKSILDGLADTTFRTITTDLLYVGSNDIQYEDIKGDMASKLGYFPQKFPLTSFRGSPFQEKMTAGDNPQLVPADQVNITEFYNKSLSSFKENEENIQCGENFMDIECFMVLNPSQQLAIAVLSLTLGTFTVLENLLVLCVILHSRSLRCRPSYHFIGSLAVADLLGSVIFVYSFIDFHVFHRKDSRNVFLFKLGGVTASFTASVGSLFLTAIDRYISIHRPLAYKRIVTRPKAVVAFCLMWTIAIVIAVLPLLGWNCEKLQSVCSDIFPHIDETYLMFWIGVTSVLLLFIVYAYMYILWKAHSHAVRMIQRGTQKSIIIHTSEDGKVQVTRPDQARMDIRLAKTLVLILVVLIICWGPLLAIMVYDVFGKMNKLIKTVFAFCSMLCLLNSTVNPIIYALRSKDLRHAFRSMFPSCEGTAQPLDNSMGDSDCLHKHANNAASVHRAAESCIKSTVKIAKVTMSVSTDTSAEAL

For Cc1cccc(-c2ccc(C(C)(C)c3ccccc3)cc2O)c1 [Compound 39, 3′-methyl-4-(2-phenylpropan-2-yl)biphenyl-2-ol], the CB1/CB2 (human CB2 receptor) was 8.87.
COc1cc(C(=O)c2ccccc2)cc(O)c1-c1cc(Cl)cc(Cl)c1 [Compound 29, (3′,5′-dichloro-2-hydroxy-6-methoxybiphenyl-4-yl)(phenyl)methanone] gave an EC50 (H69AR lung cancer cells) of 1.3 µM, an EC50 [1, 5] of 1.5 µM and an EC50 ([2]; BXPC-3, 18 h, read-out: BxPC-3 pancreatic EC50 (μM)) of 9.3 µM. The “IL-6 Reduction” value (IL-6; 100 nM compound) was less than 5%, the EC50 [3, 6] was 2.8 µM and the Ki (human CB1 receptor) was greater than 1000 nM. For the same molecule, the EC50 [4, 7] was 2.9 µM, the inhibition at 0.1 µM (NF-κB; A549, 18 h) was 50% and the “CXCL-8 Reduction” value (CXCL-8; 100 nM compound) was less than 10%. For the same molecule, the Ki (human CB2 receptor) was 4.77 nM and the CB1/CB2 (human CB2 receptor) was 209.
Cc1cccc(-c2c(O)cc(C(C)(C)c3cccs3)cc2O)c1 [Compound 43, 3′-methyl-4-(2-(thiophen-2-yl)propan-2-yl)biphenyl-2,6-diol] gave a CB1/CB2 (human CB2 receptor) of 0.05.
CC(C)(c1ccccc1)c1cc(O)c(-c2cc(Cl)cc(Cl)c2)c(O)c1 [Compound 41, 3′,5′-dichloro-4-(2-phenylpropan-2-yl)biphenyl-2,6-diol] showed an EC50 (H69AR lung cancer cells) of 1.8 µM, an EC50 [1, 5] of 1.4 µM and an EC50 [3, 6] of 1.5 µM. It also gave a CB1/CB2 (human CB2 receptor) of 87.5.
CC(C)(c1cc(O)c(-c2cc(Cl)cc(Cl)c2)c(O)c1)c1cccs1 [Compound 44, 3′,5′-dichloro-4-(2-(thiophen-2-yl)propan-2-yl)biphenyl-2,6-diol] was tested, and the CB1/CB2 (human CB2 receptor) was 0.41.
Molecule Cc1cccc(-c2ccc(C(=O)c3ccccc3)cc2O)c1 [Compound 25, (2-hydroxy-3′-methylbiphenyl-4-yl)(phenyl)methanone] has a Ki (human CB1 receptor) greater than 1000 nM, an inhibition at 0.01 µM (NF-κB; A549, 10 ng/mL TNF-α, 18 hours) of 15% and a Ki (human CB2 receptor) of 454 nM. The CB1/CB2 (human CB2 receptor) was 2.21.
Molecule CC(C)(c1ccc(-c2cc(Cl)cc(Cl)c2)c(O)c1)c1cccs1 [Compound 45, 3′,5′-dichloro-4-(2-(thiophen-2-yl)propan-2-yl)biphenyl-2-ol] has a CB1/CB2 (human CB2 receptor) of 0.46.
CC(C)(c1ccccc1)c1ccc(-c2cc(Cl)cc(Cl)c2)c(O)c1 [Compound 42, 3′,5′-dichloro-4-(2-phenylpropan-2-yl)biphenyl-2-ol] showed a CB1/CB2 (human CB2 receptor) of 142.1.
Work on Cc1cccc(-c2c(O)cc(C(C)(C)c3ccccc3)cc2O)c1 [Compound 40, 3′-Methyl-4-(1-methyl-1-phenyl-ethyl)-biphenyl-2,6-diol] yielded a CB1/CB2 (human CB2 receptor) of 20.30.
In the case of COc1cc(C(O)c2cccs2)cc(OC)c1-c1cc(Cl)cc(Cl)c1 (stereo not drawn) [Compound 16, (3′,5′-dichloro-2,6-dimethoxybiphenyl-4-yl)(thiophen-2-yl)methanol], the “IL-6 Reduction” value (IL-6; 4 μM compound) is reported as 90%, the Ki (human CB1 receptor) is reported as greater than 1000 nM and the inhibition at 4 µM (NF-κB; 4 μM compound, A549, 10 ng/mL TNF-α, 18 hours) is reported as 45%. For the same molecule, the “CXCL-8 Reduction” value (CXCL-8; 4 μM compound) was 80%, the Ki (human CB2 receptor) was 0.27 nM and the CB1/CB2 (human CB2 receptor) was 3700.
O=C(c1cc(O)c(-c2cc(Cl)cc(Cl)c2)c(O)c1)c1cccs1 [Compound 31, (3′,5′-dichloro-2,6-dihydroxybiphenyl-4-yl)(thiophen-2-yl)methanone] was tested, and the “IL-6 Reduction” value (IL-6; 10 nM compound) was 35%, the Ki (human CB1 receptor) was greater than 1000 nM and the inhibition at 0.01 µM (NF-κB; A549, 10 ng/mL TNF-α, 18 hours) was 55%. For the same molecule, the Ki (human CB2 receptor) was 1.75 nM and the CB1/CB2 (human CB2 receptor) was 571.
With COc1cc(C(C)(C)c2ccccc2)cc(O)c1-c1cc(Cl)cc(Cl)c1 [Compound 47] the EC50 (H69AR lung cancer cells) was 12.2 µM, the EC50 [1, 5] was 1.4 µM and the EC50 [3, 6] was 0.9 µM. For the same molecule, the EC50 [4, 7] was 4.2 µM.
COc1cc(C(=O)c2cccs2)cc(O)c1-c1cc(Cl)cc(Cl)c1 [Compound 30, (3′,5′-dichloro-2-hydroxy-6-methoxybiphenyl-4-yl)(thiophen-2-yl)methanone] was tested, and the “IL-6 Reduction” value (IL-6; 1 μM compound) was 45%, the Ki (human CB1 receptor) was 503 nM and the inhibition at 1 µM (NF-κB; A549, 18 h) was 40%. The Ki (human CB2 receptor) was 2.32 nM and the CB1/CB2 (human CB2 receptor) was 217.
With COc1cc(C(O)c2ccccc2)cc(OC)c1-c1cc(Cl)cc(Cl)c1 (stereo not drawn) [Compound 15] the EC50 ([1]; DU-145, cell death at 18 hours, WST-8, n.a. = no activity, read-out: DU-145 prostate EC50) was 18.4 µM, the EC50 ([2]; BXPC-3, cell death at 18 hours, WST-8, n.a. = no activity, read-out: BxPC-3 pancreatic EC50) was 11.6 µM and the “IL-6 Reduction” value (IL-6; 100 nM compound) was 55%. The EC50 ([3]; cell death at 18 hours, WST-8, n.a. = no activity, read-out: DMS-135 lung EC50) was 6.2 µM, the Ki (human CB1 receptor) was greater than 1000 nM and the EC50 ([4]; HCT-15, cell death at 18 hours, WST-8, n.a. = no activity, read-out: HCT-15 colorectal EC50) was 348 µM. For the same molecule, the inhibition at 0.1 µM (NF-κB; 100 nM compound, A549, 10 ng/mL TNF-α, 18 hours) was 30%, the Ki (human CB2 receptor) was 1.66 nM and the CB1/CB2 (human CB2 receptor) was 602.

From patent US9139546B2, “Tri-aryl/heteroaromatic cannabinoids and use thereof” (priority 2007, dated 2015)
